According to ChEMBL document CHEMBL4152232, “Design, synthesis and pharmacological evaluation of ALK and Hsp90 dual inhibitors bearing resorcinol and 2,4-diaminopyrimidine motifs” (Eur J Med Chem, 2018):
The source made the active and inactive calls. The rule behind the calls is not given here.

What was measured:
U-87 MG = assay: Antiproliferative activity against human U87MG cells after 72 hrs by SRB assay; type: functional, cell-based, U-87MG ATCC
NCI-H3122 = assay: Antiproliferative activity against human NCI-H3122 cells after 72 hrs by SRB assay; type: functional, cell-based; settings: NCI-H3122, 72 h
MDA-MB-231 = assay: Antiproliferative activity against human MDA-MB-231 cells after 72 hrs by SRB assay; type: functional, cell-based; settings: MDA-MB-231, 72 h
[1] = Antiproliferative activity against human EBC1/SR cells after 72 hrs by SRB assay; type: functional, cell-based
NCI-H460 = assay: Antiproliferative activity against human NCI-H460 cells after 72 hrs by SRB assay; type: functional, cell-based; settings: NCI-H460, 72 h
DU-145 = assay: Antiproliferative activity against human DU145 cells after 72 hrs by SRB assay; type: functional, cell-based; settings: DU-145, 72 h
BT-474 = assay: Antiproliferative activity against human BT474 cells after 72 hrs by SRB assay; type: functional, cell-based; settings: BT-474, 72 h
EBC-1 = assay: Antiproliferative activity against human EBC1 cells after 72 hrs by SRB assay; type: functional, cell-based; settings: EBC-1, 72 h
HCT-116 = assay: Antiproliferative activity against human HCT116 cells after 72 hrs by SRB assay; type: functional, cell-based; settings: HCT-116, 72 h
A549 = assay: Antiproliferative activity against human A549 cells after 72 hrs by SRB assay; type: functional, cell-based; settings: A549, 72 h
NCI-N87 = assay: Antiproliferative activity against human NCI-N87 cells after 72 hrs by SRB assay; type: functional, cell-based; settings: NCI-N87, 72 h
[2] = molecular target: ALK tyrosine kinase receptor (Homo sapiens, UniProt Q9UM73); assay: Inhibition of recombinant ALK (unknown origin) using poly (Glu,Tyr)4:1 as substrate after 60 mins by ELISA
Sequence of ALK tyrosine kinase receptor (Homo sapiens, UniProt Q9UM73) (Q9UM73 whole entry): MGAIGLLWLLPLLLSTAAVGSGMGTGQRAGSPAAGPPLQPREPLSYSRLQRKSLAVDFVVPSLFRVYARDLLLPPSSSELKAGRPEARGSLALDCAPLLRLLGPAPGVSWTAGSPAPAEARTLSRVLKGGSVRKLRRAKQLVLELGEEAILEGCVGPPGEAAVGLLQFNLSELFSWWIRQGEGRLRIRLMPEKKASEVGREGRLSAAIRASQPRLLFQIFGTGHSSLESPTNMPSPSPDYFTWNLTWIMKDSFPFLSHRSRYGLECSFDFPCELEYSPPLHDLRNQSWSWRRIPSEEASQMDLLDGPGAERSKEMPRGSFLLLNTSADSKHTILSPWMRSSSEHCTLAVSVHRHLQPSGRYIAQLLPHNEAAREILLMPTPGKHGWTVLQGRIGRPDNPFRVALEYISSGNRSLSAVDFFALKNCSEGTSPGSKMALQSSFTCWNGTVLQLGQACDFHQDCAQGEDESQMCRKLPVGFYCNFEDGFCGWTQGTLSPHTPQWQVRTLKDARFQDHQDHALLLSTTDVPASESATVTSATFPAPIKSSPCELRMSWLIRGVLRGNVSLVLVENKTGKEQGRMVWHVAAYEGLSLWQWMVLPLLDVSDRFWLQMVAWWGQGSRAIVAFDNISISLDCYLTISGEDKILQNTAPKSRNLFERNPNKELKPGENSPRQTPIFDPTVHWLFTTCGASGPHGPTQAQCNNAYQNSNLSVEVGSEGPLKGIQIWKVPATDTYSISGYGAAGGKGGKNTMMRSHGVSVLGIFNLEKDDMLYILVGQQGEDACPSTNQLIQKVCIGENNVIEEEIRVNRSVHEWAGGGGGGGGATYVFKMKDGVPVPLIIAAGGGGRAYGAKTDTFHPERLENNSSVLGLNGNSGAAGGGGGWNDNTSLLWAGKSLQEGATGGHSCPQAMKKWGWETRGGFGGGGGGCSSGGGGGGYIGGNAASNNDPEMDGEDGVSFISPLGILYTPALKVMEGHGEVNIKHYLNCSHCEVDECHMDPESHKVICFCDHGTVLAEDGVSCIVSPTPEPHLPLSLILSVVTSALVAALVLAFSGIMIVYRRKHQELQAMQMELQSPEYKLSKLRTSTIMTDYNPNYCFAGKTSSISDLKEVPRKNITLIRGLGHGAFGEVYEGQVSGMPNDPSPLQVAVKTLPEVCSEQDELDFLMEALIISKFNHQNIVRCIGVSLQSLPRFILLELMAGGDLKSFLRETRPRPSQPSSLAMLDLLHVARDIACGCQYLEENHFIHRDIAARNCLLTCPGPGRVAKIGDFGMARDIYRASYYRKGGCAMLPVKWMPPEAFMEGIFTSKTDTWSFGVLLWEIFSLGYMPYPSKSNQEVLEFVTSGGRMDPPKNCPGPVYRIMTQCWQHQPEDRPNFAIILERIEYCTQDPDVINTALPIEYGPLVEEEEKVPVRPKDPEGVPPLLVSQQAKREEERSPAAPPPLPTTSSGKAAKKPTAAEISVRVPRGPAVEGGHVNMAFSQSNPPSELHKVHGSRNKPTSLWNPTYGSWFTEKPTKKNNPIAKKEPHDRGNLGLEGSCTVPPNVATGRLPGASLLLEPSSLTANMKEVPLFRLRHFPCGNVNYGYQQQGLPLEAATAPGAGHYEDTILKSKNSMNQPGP

[3] = molecular target: Heat shock protein HSP 90-alpha (Homo sapiens, UniProt P07900); assay: Inhibition of FITC-labeled geldanamycin binding to recombinant HSP90alpha (unknown origin) after 1 hr by fluorescence polarization assay
[4] = molecular target: ALK tyrosine kinase receptor (Homo sapiens, UniProt Q9UM73, G1202R); assay: Inhibition of ALK G1202R mutant (unknown origin) using poly (Glu,Tyr)4:1 as substrate after 60 mins by ELISA
Sequence of ALK tyrosine kinase receptor (Homo sapiens, UniProt Q9UM73, G1202R) (Q9UM73 19-1620 G1202R limits assumed): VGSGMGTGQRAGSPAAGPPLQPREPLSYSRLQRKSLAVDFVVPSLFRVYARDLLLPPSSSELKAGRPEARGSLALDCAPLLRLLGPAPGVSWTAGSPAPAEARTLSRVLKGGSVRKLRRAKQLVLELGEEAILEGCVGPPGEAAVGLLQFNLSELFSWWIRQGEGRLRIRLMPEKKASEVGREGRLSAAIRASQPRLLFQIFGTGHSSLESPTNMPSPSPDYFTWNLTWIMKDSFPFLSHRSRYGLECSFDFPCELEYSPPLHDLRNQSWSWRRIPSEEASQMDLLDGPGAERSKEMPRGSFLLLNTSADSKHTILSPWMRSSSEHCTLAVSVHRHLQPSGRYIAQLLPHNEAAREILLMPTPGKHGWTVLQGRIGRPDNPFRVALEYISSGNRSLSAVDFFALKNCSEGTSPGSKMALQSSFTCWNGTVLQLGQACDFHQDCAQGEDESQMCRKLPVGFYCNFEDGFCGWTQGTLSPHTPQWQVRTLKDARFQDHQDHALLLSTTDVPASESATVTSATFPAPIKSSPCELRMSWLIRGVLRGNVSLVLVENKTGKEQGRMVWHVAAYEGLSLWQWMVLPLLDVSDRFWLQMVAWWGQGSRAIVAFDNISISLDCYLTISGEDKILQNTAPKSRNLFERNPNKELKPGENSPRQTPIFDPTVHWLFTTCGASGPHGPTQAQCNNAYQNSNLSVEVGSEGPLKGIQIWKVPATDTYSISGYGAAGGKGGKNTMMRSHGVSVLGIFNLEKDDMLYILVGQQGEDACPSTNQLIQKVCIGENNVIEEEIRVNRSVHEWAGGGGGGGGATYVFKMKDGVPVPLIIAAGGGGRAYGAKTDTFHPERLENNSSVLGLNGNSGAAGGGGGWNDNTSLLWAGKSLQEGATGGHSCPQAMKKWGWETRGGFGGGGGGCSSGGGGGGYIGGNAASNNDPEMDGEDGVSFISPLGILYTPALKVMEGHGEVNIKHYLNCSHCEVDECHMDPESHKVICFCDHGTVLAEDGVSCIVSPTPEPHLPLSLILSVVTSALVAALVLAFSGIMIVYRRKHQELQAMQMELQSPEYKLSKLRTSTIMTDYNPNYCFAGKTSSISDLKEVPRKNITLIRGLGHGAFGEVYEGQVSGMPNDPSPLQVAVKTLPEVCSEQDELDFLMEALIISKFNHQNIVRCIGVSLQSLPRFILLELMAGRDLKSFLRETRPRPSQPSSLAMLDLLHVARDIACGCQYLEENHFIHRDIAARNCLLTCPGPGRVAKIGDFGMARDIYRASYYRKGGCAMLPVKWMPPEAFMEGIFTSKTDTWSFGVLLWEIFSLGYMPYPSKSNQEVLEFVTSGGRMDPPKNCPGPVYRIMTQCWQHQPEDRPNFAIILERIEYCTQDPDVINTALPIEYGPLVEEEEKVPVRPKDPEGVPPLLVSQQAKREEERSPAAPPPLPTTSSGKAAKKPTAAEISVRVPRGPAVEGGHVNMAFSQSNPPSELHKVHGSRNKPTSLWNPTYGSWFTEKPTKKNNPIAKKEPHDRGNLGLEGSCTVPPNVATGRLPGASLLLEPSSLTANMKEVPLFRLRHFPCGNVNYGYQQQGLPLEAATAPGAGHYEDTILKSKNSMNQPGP

[5] = molecular target: ALK tyrosine kinase receptor (Homo sapiens, UniProt Q9UM73, L1196M); assay: Inhibition of ALK L1196M mutant (unknown origin) using poly (Glu,Tyr)4:1 as substrate after 60 mins by ELISA
Sequence of ALK tyrosine kinase receptor (Homo sapiens, UniProt Q9UM73, L1196M) (Q9UM73 19-1620 L1196M limits assumed): as the sequence (Q9UM73 19-1620 G1202R limits assumed) above, with L1178M, R1184G counted along it

[6] = molecular target: T1, Heat shock protein HSP90 (Homo sapiens) (UniProt P07900+P08238); assay: Inhibition of Hsp90 in human NCI-H3122 cells assessed as decrease in ERK1/2 phosphorylation up to 1000 nM after 24 hrs by Western blot analysis; type: cell-based
[7] = molecular target: T1, Heat shock protein HSP90 (Homo sapiens); assay: Inhibition of Hsp90 in human NCI-H3122 cells assessed as decrease in AKT phosphorylation at Ser473 residues up to 1000 nM after 24 hrs by Western blot analysis; type: cell-based
[8] = molecular target: T1, Heat shock protein HSP90 (Homo sapiens); assay: Inhibition of Hsp90 in human NCI-H3122 cells assessed as upregulation of Hsp70 after 24 hrs by Western blot analysis; type: cell-based
[9] = molecular target: T1, Heat shock protein HSP90 (Homo sapiens); assay: Inhibition of Hsp90 in human NCI-H3122 cells assessed as decrease in ALK phosphorylation at Tyr1278 residues up to 1000 nM after 24 hrs by Western blot analysis; type: cell-based

## CCNC(=O)c1noc(-c2cc(C(C)C)c(O)cc2O)c1-c1ccc(CN2CCOCC2)cc1 [LUMINESPIB]
U-87 MG
  IC50: 31 nM
NCI-H3122
  IC50: 12.4 nM
MDA-MB-231
  IC50: 21 nM
[1]
  IC50: 30 nM
NCI-H460
  IC50: 23 nM
DU-145
  IC50: 21 nM
BT-474
  IC50: 14 nM
EBC-1
  IC50: 13 nM
HCT-116
  IC50: 16 nM
A549
  IC50: 60 nM
NCI-N87
  IC50: 83 nM

## COc1ccc(NC(=O)CNC(=O)CN2CCN(Cc3ccc4c(c3)CN(C(=O)c3cc(C(C)C)c(O)cc3O)C4)CC2)cc1Nc1ncc(Cl)c(Nc2ccccc2S(=O)(=O)C(C)C)n1
NCI-H3122
  IC50: 175 nM
[2]
  IC50: 4.1 nM
[3]
  IC50: 47 nM

## CCNC(=O)c1noc(-c2cc(C(C)C)c(O)cc2O)c1-c1ccc(CNCC(=O)Nc2ccc(OC)c(Nc3ncc(Cl)c(Nc4ccccc4S(=O)(=O)C(C)C)n3)c2)cc1
NCI-H3122
  IC50: 57 nM
[2]
  IC50: 24.2 nM
[3]
  IC50: 260 nM

## CCNC(=O)c1noc(-c2cc(C(C)C)c(O)cc2O)c1-c1ccc(CNCC(=O)Nc2cccc(Nc3ncc(Cl)c(Nc4ccccc4S(=O)(=O)C(C)C)n3)c2)cc1
NCI-H3122
  IC50: 141 nM
[2]
  IC50: 10.3 nM
[3]
  IC50: 370 nM

## COc1ccc(Nc2ncc(Cl)c(Nc3ccccc3S(=O)(=O)C(C)C)n2)cc1NC(=O)CNC(=O)c1noc(-c2cc(C(C)C)c(O)cc2O)c1-c1ccc(CN2CCOCC2)cc1
NCI-H3122
  IC50: 319 nM
[2]
  IC50: 958 nM
[3]
  IC50: > 1000 nM

## COc1ccc(NC(=O)CNC(=O)c2noc(-c3cc(C(C)C)c(O)cc3O)c2-c2ccc(CN3CCOCC3)cc2)cc1Nc1ncc(Cl)c(Nc2ccccc2S(=O)(=O)C(C)C)n1
NCI-H3122
  IC50: 587 nM
[2]
  IC50: 108 nM
[3]
  IC50: > 1000 nM

## CC(C)c1cc(-c2onc(C(=O)NCC(=O)Nc3cccc(Nc4ncc(Cl)c(Nc5ccccc5S(=O)(=O)C(C)C)n4)c3)c2-c2ccc(CN3CCOCC3)cc2)c(O)cc1O
NCI-H3122
  IC50: 444 nM
[2]
  IC50: 53.7 nM
[3]
  IC50: > 1000 nM

## CCNC(=O)c1noc(-c2cc(C(C)C)c(O)cc2O)c1-c1ccc(C(=O)NCC(=O)Nc2ccc(OC)c(Nc3ncc(Cl)c(Nc4ccccc4S(=O)(=O)C(C)C)n3)c2)cc1
NCI-H3122
  IC50: 159 nM
[2]
  IC50: 83.2 nM
[3]
  IC50: > 1000 nM

## CC(C)c1cc(C(=O)N2Cc3ccc(CN4CCN(C)CC4)cc3C2)c(O)cc1O [ONALESPIB]
NCI-H3122
  IC50: 52 nM
[3]
  IC50: 13.6 nM

## CCNC(=O)c1noc(-c2cc(C(C)C)c(O)cc2O)c1-c1ccc(CN2CCN(CC(=O)NCC(=O)Nc3ccc(OC)c(Nc4ncc(Cl)c(Nc5ccccc5S(=O)(=O)C(C)C)n4)c3)CC2)cc1
U-87 MG
  IC50: 205 nM
NCI-H3122
  IC50: 46 nM
MDA-MB-231
  IC50: 135 nM
[1]
  IC50: 495 nM
[4]
  IC50: 36.4 nM
NCI-H460
  IC50: 624 nM
[5]
  IC50: 8.7 nM
DU-145
  IC50: 367 nM
[2]
  IC50: 6.9 nM
BT-474
  IC50: 60 nM
EBC-1
  IC50: 163 nM
[3]
  IC50: 84.8 nM
HCT-116
  IC50: 193 nM
A549
  IC50: 613 nM
NCI-N87
  IC50: 230 nM

## CCNC(=O)c1noc(-c2cc(C(C)C)c(O)cc2O)c1-c1ccc(C(=O)N2CCN(CC(=O)Nc3cccc(Nc4ncc(Cl)c(Nc5ccccc5S(=O)(=O)C(C)C)n4)c3)CC2)cc1
NCI-H3122
  IC50: 113 nM
[2]
  IC50: 22.9 nM
[3]
  IC50: 123 nM

## CCNC(=O)c1noc(-c2cc(C(C)C)c(O)cc2O)c1-c1ccc(CN2CCN(CC(=O)Nc3ccc(OC)c(Nc4ncc(Cl)c(Nc5ccccc5S(=O)(=O)C(C)C)n4)c3)CC2)cc1
U-87 MG
  IC50: 237 nM
[6]
  inhibition: Active
NCI-H3122
  IC50: 11 nM
MDA-MB-231
  IC50: 104 nM
[1]
  IC50: 215 nM
[4]
  IC50: 85.5 nM
NCI-H460
  IC50: 235 nM
[5]
  IC50: 6.2 nM
DU-145
  IC50: 228 nM
[7]
  inhibition: Active
[2]
  IC50: 17.3 nM
[8]
  inhibition: Dose-dependent effect
[9]
  inhibition: Active
BT-474
  IC50: 52 nM
EBC-1
  IC50: 47 nM
[3]
  IC50: 100 nM
HCT-116
  IC50: 82 nM
A549
  IC50: 287 nM
NCI-N87
  IC50: 503 nM

## COc1ccc(NC(=O)CN2CCN(Cc3ccc4c(c3)CN(C(=O)c3cc(C(C)C)c(O)cc3O)C4)CC2)cc1Nc1ncc(Cl)c(Nc2ccccc2S(=O)(=O)C(C)C)n1
[6]
  inhibition: Active
NCI-H3122
  IC50: 13 nM
[5]
  IC50: 6 nM
[7]
  inhibition: Active
[2]
  IC50: 9.8 nM
[8]
  inhibition: Dose-dependent effect
[9]
  inhibition: Active
[3]
  IC50: 40 nM
